Data reported in ChEMBL document CHEMBL1828585, “Reverse fosmidomycin derivatives against the antimalarial drug target IspC (Dxr)” (J Med Chem, 2011).
Calls of active or inactive are those of the source. The calls are words filed in the database; no cut-off is given here.

System: not listed separately
Assay: Inhibition of Plasmodium falciparum IspC
Conditions: not given

Compound	IC50
CC(C)N(O)C(=O)CCC(c1ccccc1)P(=O)(O)O (centres undefined)	Not Active

Same assay, conditions: read-out: IC50

Compound	IC50
CCN(O)C(=O)CCC(c1ccccc1)P(=O)(O)O (centres undefined)	15 nM
CN(O)C(=O)CCC(c1ccc(F)c(F)c1)P(=O)(O)O (centres undefined)	3 nM
O=CN(O)CCCP(=O)(O)O [FOSMIDOMYCIN]	140 nM
O=C(CCC(c1ccc(F)c(F)c1)P(=O)(O)O)NO (centres undefined)	3 nM
O=C(CCC(c1cccc2ccccc12)P(=O)(O)O)NO (centres undefined)	37 nM
CN(O)C(=O)CCC(c1cccc2ccccc12)P(=O)(O)O (centres undefined)	9 nM
CN(O)C(=O)CCC(c1ccc(Cl)c(Cl)c1)P(=O)(O)O (centres undefined)	4 nM

System: not listed separately
Assay: Inhibition of Escherichia coli IspC
Conditions: not given

Compound	IC50
CC(C)N(O)C(=O)CCC(c1ccccc1)P(=O)(O)O (centres undefined)	Not Active

Same assay, conditions: read-out: IC50

Compound	IC50
CCN(O)C(=O)CCC(c1ccccc1)P(=O)(O)O (centres undefined)	15000 nM
O=CN(O)CCCP(=O)(O)O [FOSMIDOMYCIN]	220 nM
O=C(CCC(c1ccc(F)c(F)c1)P(=O)(O)O)NO (centres undefined)	210 nM
O=C(CCC(c1cccc2ccccc12)P(=O)(O)O)NO (centres undefined)	7400 nM
CN(O)C(=O)CCC(c1cccc2ccccc12)P(=O)(O)O (centres undefined)	3800 nM
CN(O)C(=O)CCC(c1ccc(Cl)c(Cl)c1)P(=O)(O)O (centres undefined)	290 nM

System: Plasmodium falciparum
Assay: Antimicrobial activity against chloroquine-resistant Plasmodium falciparum K1 infected in human erythrocytes assessed as inhibition of parasite replication
Assay type: functional, organism-based
Conditions: not given

Compound	IC50
CC(C)N(O)C(=O)CCC(c1ccccc1)P(=O)(O)O (centres undefined)	Not Active

Same assay, conditions: Plasmodium falciparum, K1; read-out: IC50

Compound	IC50
CCN(O)C(=O)CCC(c1ccccc1)P(=O)(O)O (centres undefined)	1300 nM
CN(O)C(=O)CCC(c1ccc(F)c(F)c1)P(=O)(O)O (centres undefined)	290 nM
O=CN(O)CCCP(=O)(O)O [FOSMIDOMYCIN]	3700 nM
O=C(CCC(c1ccc(F)c(F)c1)P(=O)(O)O)NO (centres undefined)	380 nM
O=C(CCC(c1cccc2ccccc12)P(=O)(O)O)NO (centres undefined)	2400 nM
CN(O)C(=O)CCC(c1cccc2ccccc12)P(=O)(O)O (centres undefined)	970 nM
CN(O)C(=O)CCC(c1ccc(Cl)c(Cl)c1)P(=O)(O)O (centres undefined)	410 nM

System: MRC5
Assay: Cytotoxicity against human MRC5 cells
Assay type: cell-based
Conditions: not given

Compound	IC50
CCN(O)C(=O)CCC(c1ccccc1)P(=O)(O)O (centres undefined)	> 64000 nM
CN(O)C(=O)CCC(c1ccc(F)c(F)c1)P(=O)(O)O (centres undefined)	> 64000 nM
O=CN(O)CCCP(=O)(O)O [FOSMIDOMYCIN]	> 62000 nM
O=C(CCC(c1ccc(F)c(F)c1)P(=O)(O)O)NO (centres undefined)	> 64000 nM
CC(C)N(O)C(=O)CCC(c1ccccc1)P(=O)(O)O (centres undefined)	> 64000 nM
O=C(CCC(c1cccc2ccccc12)P(=O)(O)O)NO (centres undefined)	> 64000 nM
CN(O)C(=O)CCC(c1cccc2ccccc12)P(=O)(O)O (centres undefined)	> 62000 nM
CN(O)C(=O)CCC(c1ccc(Cl)c(Cl)c1)P(=O)(O)O (centres undefined)	> 64000 nM

System: Plasmodium berghei
Assay: Antimalarial activity against Plasmodium berghei ANKA infected in Swiss mouse assessed as suppression of infected RBC at 10 mg/kg, ip qd for 5 days coadministered with ritonavir 10 mg/kg, po measured on day 4
Assay type: functional
Conditions: not given

Compound	Activity
CCN(CC)CCCC(C)Nc1ccnc2cc(Cl)ccc12 (centres undefined) [CHLOROQUINE]	98%

System: Plasmodium berghei
Assay: Antimalarial activity against Plasmodium berghei ANKA infected in Swiss mouse assessed as suppression of infected RBC at 40 mg/kg, ip bid for 5 days coadministered with ritonavir 10 mg/kg, po
Assay type: functional
Conditions: not given

Compound	Activity
CN(O)C(=O)CCC(c1ccc(F)c(F)c1)P(=O)(O)O (centres undefined)	78%
O=CN(O)CCCP(=O)(O)O [FOSMIDOMYCIN]	92%
O=C(CCC(c1ccc(F)c(F)c1)P(=O)(O)O)NO (centres undefined)	89%

System: Plasmodium berghei
Assay: Antimalarial activity against Plasmodium berghei ANKA infected in Swiss mouse assessed as survival at 10 mg/kg, ip qd for 5 days coadministered with ritonavir 10 mg/kg, po
Conditions: not given

Compound	Survival
CCN(CC)CCCC(C)Nc1ccnc2cc(Cl)ccc12 (centres undefined) [CHLOROQUINE]	Active

System: Plasmodium berghei
Assay: Antimalarial activity against Plasmodium berghei ANKA infected in Swiss mouse assessed as survival at 40 mg/kg, ip bid for 5 days coadministered with ritonavir 10 mg/kg, po
Conditions: not given

Compound	Survival
CN(O)C(=O)CCC(c1ccc(F)c(F)c1)P(=O)(O)O (centres undefined)	inactive
O=CN(O)CCCP(=O)(O)O [FOSMIDOMYCIN]	Active
O=C(CCC(c1ccc(F)c(F)c1)P(=O)(O)O)NO (centres undefined)	Active
